Where two headings read alike, the source gives them in different places.
Biological target: T1, mu opiate receptor (MOR) (Rattus norvegicus, UniProt P33535)
T1 construct: from tissue; host or cells: striatum (membrane preparation)
Type: biochemical

[1] = 0.1 μM compound, striatal membranes, Series C-2
[2] = 1 μM compound + 1 μM β-FNA (selective MOR antagonist), Series C-2
[3] = 1 μM compound, striatal membranes, Series C-2

T1 sequence (P33535 whole entry): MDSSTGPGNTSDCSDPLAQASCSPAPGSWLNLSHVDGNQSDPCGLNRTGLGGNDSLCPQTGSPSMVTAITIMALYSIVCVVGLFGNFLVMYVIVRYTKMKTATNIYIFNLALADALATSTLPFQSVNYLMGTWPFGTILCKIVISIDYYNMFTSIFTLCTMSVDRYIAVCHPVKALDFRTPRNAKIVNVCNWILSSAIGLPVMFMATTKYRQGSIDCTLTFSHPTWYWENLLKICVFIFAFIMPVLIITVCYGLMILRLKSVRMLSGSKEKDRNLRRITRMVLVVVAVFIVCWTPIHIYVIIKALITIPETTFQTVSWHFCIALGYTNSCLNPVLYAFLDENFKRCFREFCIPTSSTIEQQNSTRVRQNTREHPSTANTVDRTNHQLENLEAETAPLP

| Compound | % DAMGO (0.1 μM) | % DAMGO (1 μM) | % DAMGO + BFNA | Concentration of FLNA-Binding Compound as Agonist 0.1 μM ([35S]GTPγS binding to Gαo in striatal membranes, compound 0.1 μM) | Concentration of FLNA-Binding Compound as Agonist 1 μM ([35S]GTPγS binding to Gαo in striatal membranes, compound 1 μM) | Concentration of FLNA-Binding Compound as Agonist 1 μM + BFNA ([35S]GTPγS binding to Gαo in striatal membranes, compound 1 μM plus 1 μM β-funaltrexamine (MOR antagonist)) | [35S]GTPγS binding, FLNA-Binding Compound as Agonist at 0.1 μM | [35S]GTPγS binding, FLNA-Binding Compound as Agonist at 1 μM | [35S]GTPγS binding, FLNA-Binding Compound as Agonist at 1 μM + BFNA | [35S]GTPγS binding, FLNA-Binding Compound as Agonist at 0.1 μM [1] | [35S]GTPγS binding, FLNA-Binding Compound as Agonist at 1 μM + BFNA [2] | [35S]GTPγS binding, FLNA-Binding Compound as Agonist at 1 μM [3] |
| --- | --- | --- | --- | --- | --- | --- | --- | --- | --- | --- | --- | --- |
| CC(=O)c1ccc(S(=O)(=O)N2CCC3(CC2)NC(=O)CN3Cc2ccccc2)cc1 [Compound C0085M] | 105.5% | 78.4% | 112.6% | 211.6% | 246.2% | 43.7% | – | – | – | – | – | – |
| CC(=O)c1ccc(S(=O)(=O)N2CC(=O)NC23CCNCC3)cc1 [Compound C0086M] | 117.5% | 104.9% | 692.3% | – | – | – | 206.8% | 265.3% | 152.3% | – | – | – |
| COc1ccc(S(=O)(=O)N2CCOC23CCN(C)CC3)cc1 [Compound C0088M] | 160.5% | 161.7% | 513.3% | – | – | – | – | – | – | 276.3% | 177.1% | 355.3% |
| CCN1CCC2(CC1)OCCN2S(=O)(=O)c1ccc(OC)cc1 [Compound C0089M] | 136.3% | 134.4% | 237.4% | – | – | – | – | – | – | 234.5% | 81.9% | 295.3% |
| COc1ccc(S(=O)(=O)N2CCOC23CCN(CC2CC2)CC3)cc1 [Compound C0090M] | 137.7% | 155.2% | 118.8% | – | – | – | 237.0% | 341.0% | 41.0% | – | – | – |
| C=CCN1CCC2(CC1)OCCN2S(=O)(=O)c1ccc(OC)cc1 [Compound C0091M] | 118.1% | 108.5% | 367.3% | – | – | – | – | – | – | 207.9% | 80.8% | 274.4% |
| CC(=O)c1ccc(S(=O)(=O)N2CCOC23CCN(C)CC3)cc1 [Compound C0093M] | 81.3% | 96.4% | 127.5% | – | – | – | – | – | – | 140.0% | 44.0% | 211.8% |
| CCN1CCC2(CC1)OCCN2S(=O)(=O)c1ccc(C(C)=O)cc1 [Compound C0094M] | 100.2% | 119.9% | 334.2% | – | – | – | – | – | – | 172.5% | 115.3% | 263.5% |
| CC(=O)c1ccc(S(=O)(=O)N2CCOC23CCN(CC2CC2)CC3)cc1 [Compound C0095M] | 107.4% | 88.8% | 489.5% | – | – | – | – | – | – | 189.1% | 107.7% | 224.6% |
| C=CCN1CCC2(CC1)OCCN2S(=O)(=O)c1ccc(C(C)=O)cc1 [Compound C0096M] | 105.9% | 130.0% | 577.7% | – | – | – | – | – | – | 186.4% | 127.1% | 328.9% |
| CCOC(=O)CN1CCC2(CC1)OCCN2S(=O)(=O)c1ccc(C(C)=O)cc1 [Compound C0099M] | 93.8% | 88.0% | 241.5% | – | – | – | – | – | – | 157.2% | 114.7% | 195.7% |
| CC(=O)c1ccc(S(=O)(=O)N2CCOC23CCN(CC(=O)O)CC3)cc1 [Compound C0100M] | 103.6% | 110.6% | 411.8% | – | – | – | – | – | – | 173.6% | 195.6% | 245.9% |
| CCCCN1CCC2(CC1)OCCN2S(=O)(=O)c1ccc(C(C)=O)cc1 [Compound C0101M] | 82.5% | 123.4% | 368.0% | – | – | – | – | – | – | 138.2% | 174.8% | 274.3% |
| CCCCN1CCC2(CC1)OCCN2S(=O)(=O)c1ccc(OC)cc1 [Compound C0102M] | 78.6% | 122.4% | 316.6% | – | – | – | – | – | – | 131.8% | 150.4% | 272.0% |
| CN1CCC2(CC1)NC(=O)CN2Cc1ccccc1 [Compound C0104M] | 99.5% | 96.3% | 296.5% | – | – | – | – | – | – | 188.2% | 143.8% | 238.9% |
| CN1CCC2(CC1)NCC(=O)N2Cc1ccccc1 [Compound C0105M] | 104.7% | 88.8% | 150.7% | – | – | – | – | – | – | 198.1% | 73.1% | 220.3% |
| CN1CCC2(CC1)OCCN2S(=O)(=O)c1ccc(S(C)(=O)=O)cc1 [Compound C0106M] | 102.5% | 108.3% | 246.7% | – | – | – | – | – | – | 171.8% | 117.2% | 240.7% |
| CC(=O)c1ccc(S(=O)(=O)N2CC(CN(C)C)OC23CCN(C)CC3)cc1 (stereo not drawn) [Compound C0108M] | 108.7% | 104.1% | 158.6% | – | – | – | – | – | – | 205.6% | 76.9% | 258.5% |
| O=C1CNC2(CCNCC2)N1Cc1ccccc1 [Compound C0114M] | 77.6% | 71.4% | 91.3% | – | – | – | 114.0% | 144.3% | 35.9% | – | – | – |
| O=C1CN(Cc2ccccc2)C2(CCNCC2)N1 [Compound C0115M] | 105.7% | 102.0% | 249.3% | – | – | – | 177.2% | 226.8% | 118.4% | – | – | – |
| CS(=O)(=O)c1ccc(S(=O)(=O)N2CCOC23CCNCC3)cc1 [Compound C0116M] | 136.6% | 122.0% | 313.4% | – | – | – | 258.4% | 302.8% | 152.0% | – | – | – |

— patent publication US10760052B2, “Method of inhibiting tau phosphorylation” (priority 2012, dated 2020)
